This is an account of results in publication PMC6152192, “Novel Methylselenoesters as Antiproliferative Agents” (Molecules : A Journal of Synthetic Chemistry and Natural …, 2017).

The subject of one data set is MCF7 cells. The data set is described as follows: Cell cycle analysis (propidium iodide, Apo-Direct kit, flow cytometry). The data set is classed as cell-based. The following applies: for concentration from which the increase of cells in G2/M phase was evident: MCF7, 24 h; for effect on cell cycle distribution: MCF7, increasing concentrations 24 h or time-course; for time of significant decrease in the G0/G1 phase / treatment time after which an increase in G2/M phase was found: MCF7, time-course, 15 μM compound 5 or 30 μM compound 15. As to the method: Cell cycle arrest is the target of many anticancer drugs, as it is the first step to decrease cell proliferation. To gain a better understanding of the mechanism of these compounds, the effect of compounds 5 and 15 on cell cycle distribution was analyzed. MCF7 cells were treated with increasing concentrations of both compounds for 24 h or with 15 μM 5 or 30 μM 15 for different times. The negative control was treated with vehicle, and camptothecin (6 μM) was used as a positive control. Samples were stained with propidium iodide using the Apo-Direct kit (BD Pharmingen, Madrid, Spain) and processed by flow cytometry.
3 × 10^6 or 2 × 10^6 MCF7 cells were seeded in 25 cm^2 flasks for treatments up to 24 h or 48 h, respectively. DMSO (vehicle) or the dissolved compounds were added 24 h after seeding and cells were incubated for different times at 37 °C under 5% CO2. Cell cycle and cell death were analyzed simultaneously with the Apo-Direct kit (BD Pharmingen, Madrid, Spain), following the manufacturer’s protocol. Briefly, cells were fixed in 1% paraformaldehyde for 45 min at 0 °C, washed with PBS and incubated for at least 30 min in 70% ethanol on ice. Cells were then stained both with FITC-dUTP (1 h, 37 °C) and propidium iodide (30 min, room temperature) and analyzed by flow cytometry using a Coulter Epics XL cytometer (Beckman Coulter, Brea, CA, USA).
Figure 4 Compounds 5 and 15 induce cell cycle arrest in G2/M phase in MCF7. MCF7 cells were treated with different concentrations of compound 5, 15 or vehicle (control) for 24 h or for different time periods. Cells were stained with propidium iodide with the Apo-Direct kit and analyzed by flow cytometry. (A) Quantification of cell cycle distribution after 24 h treatment with increasing concentrations of compound 5; (B) Representative experiment of A; (C) Quantification of cell cycle distribution after 24 h treatment with increasing concentrations of compound 15; (D) Representative experiment of C; (E) Cell cycle distribution after treatment with vehicle, 15 μM of compound 5 or 30 μM of compound 15 for different times. Results represent the mean ± SEM of at least three independent experiments performed in duplicate. * p < 0.05, ** p < 0.01.
A general note: In flow cytometry, cells or beads pass a laser one at a time.

The subject of data set [1] is PC-3 (prostate adenocarcinoma). The data set is described as follows: MTT viability assay, PC-3. In kind it is cell-based. The following applies: PC-3, 72 h, MTT; for CC50: read-out: LC50 (the source's name). A digest of the protocol:
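Cells (10,000/well; RPMI or, for BEAS-2B, DMEM with 10% FBS; 37 °C, 5% CO2) were treated 72 h with six concentrations from 0.1 to 100 μM, diluted from 0.01 M DMSO stock. MTT was added for 4 h, formazan dissolved in DMSO, absorbance read at 550 nm; GI50, TGI and LC50 derived.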

For data set [2], the system named is thioredoxin reductase (TrxR1). Nature of the data set: Thioredoxin reductase activity assay (NADPH consumption). The settings on record: 100 nM TrxR1, 227 μM NADPH, TE buffer pH 8, 45 min. In kind it is biochemical. As to the method: The assay was performed as previously described, but in a final volume of 200 μL in a 96-well plate. Reaction started after addition of 133 μL of TE buffer (20 mM Tris, 2 mM EDTA, pH = 8), 0.227 mM NADPH (freshly prepared) to different concentrations of compounds solved in DMSO and TrxR1 (final concentration 100 nM). NADPH consumption was followed measuring absorbance decrease at 340 nm in a VersaMax microplate reader (Molecular Devices, Sunnyvale, CA, USA) over 45 min. A background sample with DMSO without the compounds was included and subtracted from the values.
Figure 7 Compounds 5 and 15 are substrates for thioredoxin reductase but not for the glutathione-glutaredoxin system. (A) NADPH consumption indicating reduction of compounds 5, 15 or MSA as control by thioredoxin reductase. The reaction mixture contained 100 nM TrxR1, 227 μM NADPH and the corresponding amount of compound in TE buffer (20 mM Tris, 2 mM EDTA pH = 8); (B) NADPH consumption indicating reduction of MSA by glutathione in the presence or absence of glutaredoxin. The reaction mixture contained the corresponding amount of compound, 0.1 M Tris, 2 mM EDTA pH = 8, 0.1 mg/mL BSA, 1 mM GSH, 200 μM NADPH, 0.008 OD/mL yeast GR and 1 μM hGrx1 when required. Only results for MSA are shown, as compounds 5 and 15 were not reduced.

One may read the GI50 as the concentration that inhibits growth by half. A higher GI50 goes with lower sensitivity of the cells. The term TGI denotes the concentration giving total growth inhibition. A lower TGI goes with greater sensitivity of the cells.

On to “Methyl 3-chlorothiophen-2-carboselenoate [Compound 5]”, for which, in the data set on MCF7 cells, the “concentration from which the increase of cells in G2/M phase was evident” value was ≥ 15 µM, the “effect on cell cycle distribution” value is recorded as “increased the percentage of cells in G2/M phase”, the “time of significant decrease in the G0/G1 phase” value is recorded as 8 h and the “treatment time after which an increase in G2/M phase was found” value is on record as 8 h. Moreover, in data set [1], the GI50 came out at 8.6 ± 1.7 µM, the concentration for total growth inhibition (TGI) came to 47.7 ± 2.9 µM and the CC50 worked out at 91.6 ± 3.9 µM. In addition, in data set [2], the “reduction by TrxR1 (NADPH consumption)” value is reported as “substrates only for TrxR1”.
Regarding “Dimethyl 2,5-furandicarboselenoate [Compound 15]”, in the data set with MCF7 cells, the “concentration from which the increase of cells in G2/M phase was evident” value was ≥ 7 µM, the “effect on cell cycle distribution” value was “increased the percentage of cells in G2/M phase”, the “time of significant decrease in the G0/G1 phase” value is recorded as 16 h and the “treatment time after which an increase in G2/M phase was found” value was 8 h. For the same substance, in data set [1], the 50% growth inhibitory concentration (GI50) was 4.8 ± 0.8 µM and the CC50 worked out at 47.8 ± 4.4 µM. Further, the “reduction by TrxR1 (NADPH consumption)” value in data set [2] is “substrates only for TrxR1”.
